Values quoted from earlier work, collected in patent US20240216401A1, “COMBINATION THERAPY BY USING AKR1C3-ACTIVATED COMPOUND WITH IMMUNE CHECKPOINT INHIBITOR” (OBI Pharma, Inc., priority 2021, published 2024).

System: tumor
Details: in vitro and in vivo; references 6, 21; cited from earlier work

CS(=O)(=O)OCCN(CCBr)c1c(C(=O)NCCOP(=O)(O)O)cc([N+](=O)[O-])cc1[N+](=O)[O-] [PR104]
anti-tumor activity (in words): good anti-tumor activity
